Reference: patent US9023853B2, “Janus kinase 2 (JAK2) inhibitor for the treatment of lupus” (Cephalon, Inc., priority 2010, dated 2015)

Assays:
Format in all cases: in vivo, mouse
CXCL9/MIG = experiment: Serum CXCL9/MIG in NZM mice
Protocol: (§1) For the processing of serum samples for cytokine analysis, frozen plasma at −80° C. was thawed on ice, vortexed, and centrifuged for 10 minutes to remove debris and aggregates. A total of 25-50 μL of serum was used for Luminex® assays following the manufacturer's instructions. Ten different mouse cytokines were measured using the mouse cytokine 10-plex bead kit (Invitrogen, Carlsbad, Calif., no. LMC0001). Briefly, filter plates (Millipore, Billerica, Mass., no. MAIPSWU10), were pre-wet with 200 μL of wash solution (kit component) and 25 μL of beads were added per well. […]
(§2) Age mated, female, NZM or NZW/LacJ, mice were matured for the study of lupus nephritis for a total of 7 months or 210 days at which time urine was collected for proteinuria detection. Mice with 0.5-1.0 mg/ml of urine protein as determined by an optical density-based total protein precipitation assay and cross-checked for 30-300 mg/dl of protein as determined by a stick assay were considered proteinuria positive and selected for study entry. […] End-stage lupus nephritis was evaluated by histopathology and scored by a board certified pathologist for the assessment of total renal damage in diseased animals using the scoring method described by Smith et al (Smith, Dong et al. 2007). […]

KC/IL-8 = experiment: Serum KC/IL-8 in NZM mice
Protocol: as §1, §2

C3 = experiment: Serum complement C3 in MRL/lpr mice
Text: MRL/lpr mice were first randomized, initial bleeds collected, and body weights recorded for baseline measurements (FIG. 1). All mice were individually ear tagged and were monitored throughout the entire experiment (e.g., “Group#-Cage letter-Mouse#”, so “3B5”=Group 3 (G3), cage B, mouse#5). Mice were age-matched and treatment started at 6-8 weeks of age. Cheek bleeds and urine collection continued weekly throughout the experiment. Mice were individually tracked for several parameters including cytokine and ANA levels, proteinuria, body mass, lymphomegaly, general health, and mortality. All parameters were evaluated bi-monthly except mortality which was monitored daily. All groups consisted of a minimum of at least 10-12 mice per group. Ex vivo experiments included flow cytometry analyses for plasma cells, serum complement C3 and ANA levels; urine protein and leukocytes, serum cytokine profiling, renal histo pathology, and determination of compound levels (pharmacokinetics (PK)) in the spleen, kidney and plasma. Mice were tracked on an individual basis. For all data, mice were grouped into populations and data graphed as mean±SEM. Bi-monthly observations and data collected were recorded for each group, except mortality which was performed daily. End-stage readouts were analyzed as described in the MATERIALS AND METHODS section (above) and in FIG. 1. […]

CN1CCN(c2cccc(Nc3nc4c(-c5ccc(S(C)(=O)=O)cc5)cccn4n3)c2)CC1 [COMPOUND A, [8-(4-methanesulfonyl-phenyl)-[1,2,4]triazolo[1,5-a]pyridin-2-yl]-[3-(4-methyl-piperazin-1-yl)-phenyl]-amine]
serum CXCL9/MIG decrease compared to vehicle (CXCL9/MIG; 55 mg/kg): 83.7% | serum CXCL9/MIG decrease compared to vehicle (CXCL9/MIG; 100 mg/kg): 85.7% | serum KC/IL-8 decrease compared to vehicle (KC/IL-8; 55 mg/kg): 78.0% | serum KC/IL-8 decrease compared to vehicle (KC/IL-8; 100 mg/kg): 72.9% | serum C3 increase over vehicle (C3; 55 mg/kg p.o. b.i.d.): 51.4% | serum C3 increase over vehicle (C3; 100 mg/kg p.o. b.i.d.): 52.5%
